Molecular target: T1, 2'-phosphotransferase (Candida albicans (strain SC5314 / ATCC MYA-2876), UniProt Q5A7N4)
T1 sequence (Q5A7N4 whole entry): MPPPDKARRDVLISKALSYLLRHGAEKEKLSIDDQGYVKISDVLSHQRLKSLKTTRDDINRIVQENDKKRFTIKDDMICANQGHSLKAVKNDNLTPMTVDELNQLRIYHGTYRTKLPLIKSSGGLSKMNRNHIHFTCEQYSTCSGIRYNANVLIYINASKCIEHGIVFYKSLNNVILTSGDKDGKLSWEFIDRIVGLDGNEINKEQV
Test: TPT1 tRNA phosphotransferase inhibitors, dose response, biochemical, fluorescence polarization (AID 2160)

An IC50 of over 55.7 µM was found for `Cc1ccc2nc(N=NCc3ccc([N+](=O)[O-])o3)nc(-c3ccccc3)c2c1` in this work.
